Measured values as given in PubChem BioAssay AID1919007 (Molecular Pharmacology Branch, DTP, NCI, 2023).

Tested on: A498 complex spheroids with HUVEC/MSC, growth
Assay: Anticancer human tumor A498 cell line growth inhibition [AhR];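 also: seven day exposure starting three days after spheroid seeding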;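 as to viability, T/C: luminescence signal used as a surrogate for viable cells; luminescence viability scaled so 100% equals DMSO vehicle wells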
Conditions: for IC50: curve of first compound; for viability, T/C: stronger effect = lower value
In short: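 Spheroids combined tumor cells with HUVEC endothelial cells and human MSCs as stroma. AhR antagonists were paired with standard or investigational drugs, each dosed in half-log steps down from near clinical Cmax, or from 10 microM where Cmax was unknown.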

CC(C)c1c(-c2ccccc2)nc2c(C#N)c[nH]n2c1=O + CC(CO)NC(=O)c1cc(-c2ccc(Cl)cc2)nn(-c2cnn(C)c2)c1=O
IC50 (second compound 0.1 µM): > 10 µM | IC50 (second compound 0.316 µM): > 10 µM | IC50 (second compound 1 µM): > 10 µM | IC50 (second compound 3.16 µM): > 10 µM | IC50 (second compound 10 µM): > 10 µM | viability, T/C (second compound 0.1 µM, first compound 0.0316 µM): 94.6% | viability, T/C (second compound 0.1 µM, first compound 0.1 µM): 93.3% | viability, T/C (second compound 0.1 µM, first compound 0.316 µM): 93.3% | viability, T/C (second compound 0.1 µM, first compound 1 µM): 96.4% | viability, T/C (second compound 0.1 µM, first compound 3.16 µM): 101% | viability, T/C (second compound 0.1 µM, first compound 10 µM): 103% | viability, T/C (second compound 0.316 µM, first compound 0.0316 µM): 91.9% | viability, T/C (second compound 0.316 µM, first compound 0.1 µM): 90.5% | viability, T/C (second compound 0.316 µM, first compound 0.316 µM): 94.6% | viability, T/C (second compound 0.316 µM, first compound 1 µM): 83.1% | viability, T/C (second compound 0.316 µM, first compound 3.16 µM): 87.3% | viability, T/C (second compound 0.316 µM, first compound 10 µM): 88.5% | viability, T/C (second compound 1 µM, first compound 0.0316 µM): 85.8% | viability, T/C (second compound 1 µM, first compound 0.1 µM): 92.6% | viability, T/C (second compound 1 µM, first compound 0.316 µM): 90.7% | viability, T/C (second compound 1 µM, first compound 1 µM): 76.5% | viability, T/C (second compound 1 µM, first compound 3.16 µM): 87.1% | viability, T/C (second compound 1 µM, first compound 10 µM): 90.7% | viability, T/C (second compound 3.16 µM, first compound 0.0316 µM): 81.5% | viability, T/C (second compound 3.16 µM, first compound 0.1 µM): 86.1% | viability, T/C (second compound 3.16 µM, first compound 0.316 µM): 96.2% | viability, T/C (second compound 3.16 µM, first compound 1 µM): 75.3% | viability, T/C (second compound 3.16 µM, first compound 3.16 µM): 75.9% | viability, T/C (second compound 3.16 µM, first compound 10 µM): 81.5% | viability, T/C (second compound 10 µM, first compound 0.0316 µM): 61.8% | viability, T/C (second compound 10 µM, first compound 0.1 µM): 63.3% | viability, T/C (second compound 10 µM, first compound 0.316 µM): 70.5% | viability, T/C (second compound 10 µM, first compound 1 µM): 58.9% | viability, T/C (second compound 10 µM, first compound 3.16 µM): 64% | viability, T/C (second compound 10 µM, first compound 10 µM): 72.2%
